From PMC6983066, “Real-Time Optical Detection of Isoleucine in Living Cells through a Genetically-Encoded Nanosensor” (Sensors (Basel, Switzerland), 2019)

Legend:
[1] = system: T1, GEII nanosensor (ECFP-LivJ-Venus); assay: Specificity analysis of purified GEII nanosensor with amino acids and metal ions (Venus/ECFP FRET ratio, microplate); format: biochemical, E. coli; settings: 1 and 10 mM amino acid, purified sensor
T1 construct: His-tag (from pRSET-B); made in house; host or cells: E. coli BL21 (DE3)
Description: The FRET ratio analysis was performed in 96-well microplate reader using the excitation filter/slits (430/20 nm) and emission filters/slits for ECFP (485/20 nm), and Venus (535/25 nm) respectively. Furthermore, the sensitivity of sensor protein was tested against 10 mM of different metals ions present in the human body i.e., NaCl, CaCl2, MgCl2, and KCl.

E. coli BL21(DE3) cells = assay: Monitoring of isoleucine in living bacterial cells expressing GEII; format: cell-based; settings: 10 mM amino acid, 45 min
Description: For monitoring of isoleucine in bacterial cells, the E. coli BL21(DE3) containing pRSET-B-GEII were incubated for 48 h at 21 °C. For appropriate protein folding of nanosensor protein, the culture was stored in 4 °C overnight. The bacterial cells were centrifuged and the resultant pellet of the bacterial cells was resuspended in MOPS buffer (20 mM). Twenty microliter 10 mM isoleucine was added to 180 µL resuspended bacterial cell in the wells of microplate. The ratio of fluorescence emission intensities of Venus/ECFP was recorded for 45 min.

LivJ = LivJ binding protein; no reference given; cited from earlier work

Compound | change in FRET ratio of GEII with amino acid [1] | FRET ratio change of GEII in E. coli cells (E. coli BL21(DE3) cells) | Kd (LivJ) [nM]
C[C@H](N)C(=O)O [Alanine] | minimal | – | –
N[C@@H](CS)C(=O)O [Cysteine] | minimal | – | –
N[C@@H](CCC(=O)O)C(=O)O [Glutamate] | minimal | – | –
CC[C@H](C)[C@H](N)C(=O)O [Isoleucine] | maximum | maximum FRET ratio change | 900
CC(C)C[C@H](N)C(=O)O [Leucine] | only mildly | – | 2300
CSCC[C@H](N)C(=O)O [Methionine] | minimal | – | –
N[C@@H](CO)C(=O)O [Serine] | minimal | – | –
CC(C)[C@H](N)C(=O)O [Valine] | minimal | – | 4000
N=C(N)NCCC[C@H](N)C(=O)O [arginine] | minimal | – | –
NC(=O)C[C@H](N)C(=O)O [asparagine] | minimal | – | –
N[C@@H](CC(=O)O)C(=O)O [aspartic acid] | minimal | – | –
NC(=O)CC[C@H](N)C(=O)O [glutamine] | minimal | – | –
NCC(=O)O [glycine] | minimal | – | –
N[C@@H](Cc1c[nH]cn1)C(=O)O [histidine] | minimal | – | –
NCCCC[C@H](N)C(=O)O [lysine] | minimal | – | –
